US5011947A, “Antihypercholesterolemic alkylene compounds” (Bristol-Myers, priority 1990, dated 1991)
Structures can show the parent of a compound that is named as a salt.

The molecules below were run against T1, rat liver HMG-CoA reductase (Rattus norvegicus, UniProt P51639) (assay: Test A: In Vitro Inhibition of Microsomal HMG-CoA Reductase). Conditions: intact, fully activated microsomal form of rat liver enzyme; [3-14C]-HMG-CoA 0.33 mM; NADPH 3.0 mM; pH 7.2; at least 4 dilutions in duplicate.
T1 construct: from tissue; host or cells: rat liver microsomes
T1 sequence (P51639 1-887): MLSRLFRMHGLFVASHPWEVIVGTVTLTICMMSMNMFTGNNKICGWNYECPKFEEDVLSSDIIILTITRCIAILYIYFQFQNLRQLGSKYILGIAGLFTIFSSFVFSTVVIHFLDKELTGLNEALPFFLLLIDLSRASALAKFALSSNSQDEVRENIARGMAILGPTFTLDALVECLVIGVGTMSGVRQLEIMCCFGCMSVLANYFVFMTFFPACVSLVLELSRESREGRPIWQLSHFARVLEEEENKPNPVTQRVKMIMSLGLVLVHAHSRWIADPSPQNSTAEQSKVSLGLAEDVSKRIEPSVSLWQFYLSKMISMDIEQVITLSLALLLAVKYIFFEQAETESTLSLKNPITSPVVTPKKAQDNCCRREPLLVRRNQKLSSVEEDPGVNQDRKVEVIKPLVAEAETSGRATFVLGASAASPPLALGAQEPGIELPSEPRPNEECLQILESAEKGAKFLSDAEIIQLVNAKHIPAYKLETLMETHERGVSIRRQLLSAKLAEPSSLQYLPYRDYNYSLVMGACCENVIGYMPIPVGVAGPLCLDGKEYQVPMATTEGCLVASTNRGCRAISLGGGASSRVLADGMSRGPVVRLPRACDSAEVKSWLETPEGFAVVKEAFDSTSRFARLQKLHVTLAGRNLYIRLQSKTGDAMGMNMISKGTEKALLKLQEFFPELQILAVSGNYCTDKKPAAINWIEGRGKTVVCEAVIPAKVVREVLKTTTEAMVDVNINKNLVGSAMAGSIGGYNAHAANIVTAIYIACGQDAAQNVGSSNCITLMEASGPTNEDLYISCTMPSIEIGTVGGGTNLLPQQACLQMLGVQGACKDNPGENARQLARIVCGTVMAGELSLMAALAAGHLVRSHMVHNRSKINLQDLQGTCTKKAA
Type: biochemical
Description: Test A: In Vitro Inhibition of Microsomal HMG-CoA Reductase:
The intact, fully activated microsomal form of rat liver HMG-CoA reductase (subunit MW ca 100,000 daltons) was prepared as described by Parker, et al., Biochem. Biophys. Res. Commun., 125, 629-635 (1984), and used as the source of enzyme for assays. HMG-CoA reductase activity was determined essentially by the method of Shapiro, et al., Biochem. Biophys. Acta., 370. 369-377 (1974), with modifications as described by Ingebritsen and Gibson, Meth. Enzymol. 71. 486-497 (1981) with the exception that the internal standard ^3 H-mevalonolactone is added after termination of the assay. In this procedure, the enzyme is assayed by measuring the formation of product, ^14 C-mevalonate, from the substrate, [3-^14 C]-HMG-CoA, in the presence of NADPH. The ^14 C-mevalonate is converted to its lactone and isolated by silica thin-layer chromatography (Whatman LK5D, developed in 50:50 benzene:acetone) in the presence of ^3 H-mevalonolactone as an internal standard. Assays were conducted under conditions in which product formation was linear with respect to time and enzyme concentration.
To measure reductase inhibition, test compounds dissolved in water or dimethylsulfoxide and diluted in buffer A (50 mM imidazole-HCl, 250 mM NaCl, 1 mM EDTA, 1 mM EGTA, 5 mM DTT, 20 μM leupeptin, pH =7.2) were incubated with aliquots of microsomes (80-160 μg protein in buffer A) followed by addition of d,l-[3-^14 C]-HMG-CoA (0.33 mM, 2.0 dpm/picomole) and NADPH (3.0 mM). The 50 percent inhibitory concentration IC50) for each compound in Table 1 was calculated from the linear regression line of the percent decrease (from control) in enzyme activity vs. log concentration of inhibitor, determined using at least 4 dilutions of each test compound assayed in duplicate.
`CC(C)C(C=C[C@@H](O)C[C@@H](O)CC(=O)O)=C(c1ccc(F)cc1)c1ccc(F)cc1` (relative stereo) [Example 8, Erythro-9,9-bis(4-fluorophenyl)-3,5-dihydroxy-8-(1-methylethyl)-6,8-nonadienoic acid sodium salt] was tested, and the IC50 was 265 nM. Molecule `CC(C)(C)C(C=C[C@@H](O)C[C@@H](O)CC(=O)O)=C(c1ccc(F)cc1)c1ccc(F)cc1` (relative stereo) [Example 42, Erythro-9,9-bis(4-fluorophenyl)-3,5-dihydroxy-8-(1,1-dimethylethyl)-6,8-nonadienoic acid sodium salt] has an IC50 of 500 nM. `O=C(O)C[C@H](O)C[C@H](O)C=CC(=C(c1ccc(F)cc1)c1ccc(F)cc1)C1CC1` (relative stereo) [Example 51, Erythro-8-cyclopropyl-9,9-bis(4-fluorophenyl)-3,5-dihydroxy-6,8-nonadienoicacid sodium salt] showed an IC50 of 450 nM. Work on `CCC(C=C[C@@H](O)C[C@@H](O)CC(=O)O)=C(c1ccc(F)cc1)c1ccc(F)cc1` (relative stereo) [Example 59, Erythro-8-ethyl-9,9-bis(4-fluorophenyl)-3,5-dihydroxy-6,8-non adienoate sodium salt] yielded an IC50 of 410 nM. `O=C(O)C[C@H](O)C[C@H](O)C=CC(=C(c1ccc(F)cc1)c1ccc(F)cc1)C(F)(F)F` (relative stereo) [Example 73, Erythro9,9-bis(4-fluorophenyl)-3,5-dihydroxy-8-trifluoromethyl-6,8-nonadienoic acid sodium salt] gave an IC50 of 1580 nM.

What follows are molecules tested on Isolated Hepatocyte Cholesterol Biosynthesis (assay: Test B: Isolated Hepatocyte Cholesterol Biosynthesis Assay). Conditions: freshly isolated rat hepatocytes, 10 min preincubation, 60 minutes at 37°, pH 7.35, incorporation of 3H or 14C into sterols, read-out: IC50, Inhibition of Isolated Hepatocyte Cholesterol Biosynthesis.
Type: cell-based, male Wistar rats
Description: Test B: Isolated Hepatocyte Cholesterol Biosynthesis Assay:
Intact parenchymal hepatocytes were isolated from male Wistar rats (180-280 g) fed cholestyramine containing or normal diet, using the collagenase perfusion method essentially as described by Seglen, in Methods in Cell Biology (D. Prescott, ed.) Vol. 13, pp. 29-83, Academic Press, New York (1976). Cell preparations were used only when viability (trypan blue exclusion) exceeded 90%. Cholesterol biosynthesis was determined as the incorporation by hepatocytes of ^3 H from [^3 H]-water into total (cellular plus medium) 3β-hydroxy sterols as per Ingebritsen, et al., J. Biol. Chem., 254, 9986-9989 (1979). Hepatocyte sterols and lipids were isolated by a modification of the methods described by Kates, in Techniques in Lipidology. (M. Kates, ed.), pp. 349, 360-363, North Holland Publ. Co., Amsterdam, 1972. To isolate sterols, cells are extracted with methanol:chloroform:water (2:1:0.8), the chloroform phase is separated and extracted with benzene to remove traces of water, then dried under nitrogen. The residue is saponified at 75° C. with 0.30 N NaOH in methanol:water (9:1). […] The ^3 H-labelled sterols are quantified by liquid scintillation and corrected for counting efficiency. […]
In the case of `CC(C)C(C=C[C@@H](O)C[C@@H](O)CC(=O)O)=C(c1ccc(F)cc1)c1ccc(F)cc1` (relative stereo) [Example 8, Erythro-9,9-bis(4-fluorophenyl)-3,5-dihydroxy-8-(1-methylethyl)-6,8-nonadienoic acid sodium salt], the IC50 is reported as 27 nM. For `CC[C@H](C)C(=O)O[C@H]1C[C@@H](C)C=C2C=C[C@H](C)[C@H](CC[C@@H]3C[C@@H](O)CC(=O)O3)[C@H]21` [Mevinolin (Lovastatin), reference compound], the IC50 was 46 ± 26 nM.
